Results on ten molecules are retold here after ChEMBL document CHEMBL1201862, “PubChem BioAssay data set” (2004).

What all share (experiment): growth of human tumour cells (NCI), 48 h
Experiment [1] relates to UO-31.
The test system of experiment [2] is SK-MEL-28.
For experiment [3], the system named is SN12C.
Experiment [4] deals with HCC 2998.
In experiment [5] the test system is CCRF-CEM.
For experiment [6], the system named is A498.
Experiment [7] concerns CAKI-1.
Experiment [8] deals with HT-29.
Experiment [9] has as its system SK-MEL-2.
The subject of experiment [10] is UACC-62.
The subject of experiment [11] is NCI-H522.
Experiment [12] concerns MDA-N.
Experiment [13] deals with HOP-62.
For experiment [14], the system named is DU-145.
Experiment [15] deals with SR.
Experiment [16] has as its system 786-0.
Experiment [17] concerns LOX IMVI.
For experiment [18], the system named is HCT-15.
Experiment [19] has as its system HCT-116.
For experiment [20], the system named is SW-620.

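These data come from cells grown in 96-well plates and exposed to compound for 48 hours at five concentrations. GI50 marks 50% less growth.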 The source made the active and inactive calls. Rule as the data show it: active = GI50 up to about 1.1 µM and inactive = higher.

In the case of `O=N/N=c1\o[n-][n+](CCc2ccccc2)c1Cc1/c(=N/N=O)o[n-][n+]1CCc1ccccc1`, the GI50 in experiment [1] is > 100 µM (inactive); in experiment [2] it was 55.6 µM (inactive); in experiment [3], 34.5 µM (inactive); in [4], 44.9 µM (inactive); in [5], > 100 µM (inactive); in [6], 46.8 µM (inactive). The GI50 was > 100 µM (inactive) in experiment [7]; 76 µM (inactive) in experiment [8]; 29.6 µM (inactive) in [9]; 51.2 µM (inactive) in experiment [10]; 23.1 µM (inactive) in [11]; 80.9 µM (inactive) in experiment [12]. In addition, the GI50 in [13] was 23.2 µM (inactive); in [14] it was 55.5 µM (inactive); in experiment [15], 31.2 µM (inactive); in experiment [16], 20.2 µM (inactive); in experiment [17] it was 91.4 µM (inactive); in [18] it was > 100 µM. The GI50 is 50.1 µM (inactive) in experiment [19] and 89.7 µM (inactive) in [20].
For the molecule `Cc1ccc(S(=O)(=O)N2CC3OC(C)(C)OC3C2CO)cc1` (configuration not stated), the GI50 in experiment [2], in experiment [3], in [4], in experiment [5], in experiment [6] and in [7] was > 100 µM (inactive) in each case. Also, the GI50 in experiment [8], in [9], in [11], in experiment [12], in [13] and in [14] was > 100 µM (inactive) in each case. The GI50 in experiment [15] is > 100 µM (inactive); in [16], > 100 µM (inactive); in experiment [18], > 100 µM; in experiment [19], > 100 µM (inactive); in experiment [20], > 100 µM (inactive).
On to `COc1ccc(/C=C\c2cc(OC)c(OC)c(OC)c2)cc1OC(=O)NCCN(C)C`, for which the GI50 is 0.00411 µM (active) in [1]; 11.8 µM (inactive) in experiment [2]; 0.000244 µM (active) in experiment [3]; 0.0631 µM (active) in experiment [4]; 0.000133 µM (active) in [5]; 0.000269 µM (active) in experiment [6]. Moreover, the GI50 in experiment [7] was 0.0386 µM (active); in experiment [8], 0.526 µM (active); in experiment [10], < 0.0001 µM (active); in experiment [11], 0.000119 µM (active); in experiment [12], < 0.0001 µM (active); in experiment [13], 0.000151 µM (active). Further, the GI50 in [14] is 0.000307 µM (active); in experiment [15], 0.000154 µM (active); in [16], 0.00161 µM (active); in experiment [17], 0.000147 µM (active); in experiment [18] it was 0.000132 µM; in experiment [19], < 0.0001 µM (active). Further, the GI50 in experiment [20] was < 0.0001 µM (active).
In the case of `CN(C(=O)C12C3C4(C(=O)O)C1(C(=O)N(C)C(C)(C)C)C1C2(C(=O)O)C3(C(=O)N(C)C(C)(C)C)C14C(=O)N(C)C(C)(C)C)C(C)(C)C` (configuration not stated), the GI50 in [1], in [2], in experiment [3], in [4], in experiment [5] and in experiment [6] was > 100 µM (inactive) throughout. Moreover, the GI50 in experiment [7], in experiment [8], in experiment [9], in experiment [10], in experiment [11] and in experiment [12] was > 100 µM (inactive) each time. Moreover, the GI50 in experiment [13] was > 100 µM (inactive); in experiment [14] it was > 100 µM (inactive); in experiment [15], > 100 µM (inactive); in [16] it was > 100 µM (inactive); in experiment [17] it was > 100 µM (inactive); in experiment [18], > 100 µM. Besides, the GI50 in experiment [19] and in [20] was > 100 µM (inactive) each time.
In the case of `Cc1ccc2c(c1)C(=O)/C(=C\c1ccc(Cl)cc1)CCS2(=O)=O`, the GI50 in experiment [1] is 2.9 µM (inactive); in experiment [2], 4.59 µM (inactive); in experiment [3], 2.86 µM (inactive); in experiment [4], 2.13 µM (inactive); in experiment [5] it was 2 µM (inactive); in experiment [6], 12.4 µM (inactive). Also, the GI50 in experiment [7] was 3.07 µM (inactive); in [8], 2.55 µM (inactive); in experiment [9], 19.4 µM (inactive); in experiment [10] it was 3.15 µM (inactive); in experiment [11], 1.52 µM (inactive); in [12] it was 4.81 µM (inactive). For the same molecule, the GI50 in [13] was 6.67 µM (inactive); in experiment [14], 2.66 µM (inactive); in experiment [15], 1.66 µM (inactive); in experiment [16], 1.69 µM (inactive); in experiment [17] it was 2.54 µM (inactive); in experiment [18], 1.97 µM. For the same molecule, the values for the GI50 in [19] and in [20] were 1.65 µM (inactive) and 3.18 µM (inactive), respectively.
On to `CN(C)CCNC(=O)c1ccc(Cl)c2cc3ccccc3nc12`, for which the GI50 in experiment [1] was 0.404 µM (active); in experiment [2], 1.82 µM (inactive); in [3], 0.577 µM (active); in [4], 1.16 µM (inactive); in [5], 0.394 µM (active); in experiment [6] it was 0.143 µM (active). The GI50 is 0.448 µM (active) in experiment [7]; 0.422 µM (active) in experiment [8]; 2.01 µM (inactive) in experiment [9]; 0.652 µM (active) in experiment [10]; 0.612 µM (active) in experiment [11]; 0.889 µM (active) in experiment [12]. The GI50 in [13] was 1 µM (active); in experiment [14] it was 0.991 µM (active); in experiment [15] it was 0.339 µM (active); in experiment [16] it was 0.362 µM (active); in [17] it was 0.23 µM (active); in experiment [18], 0.54 µM. For the same molecule, the GI50 in experiment [19] was 0.408 µM (active); in [20], 0.453 µM (active).
For `O=C1[C@@H](O)[C@@H]2CCCC[C@@]23CCCN13`, the GI50 in [1], in experiment [2], in [3], in [4], in experiment [5] and in [6] was > 100 µM (inactive) throughout. Also, the GI50 in [7], in experiment [8], in [9], in experiment [10], in experiment [11] and in [12] was > 100 µM (inactive) in each case. In addition, the GI50 is > 100 µM (inactive) in [13]; > 100 µM (inactive) in experiment [14]; > 100 µM (inactive) in [15]; > 100 µM (inactive) in [16]; > 100 µM (inactive) in experiment [17]; > 100 µM in experiment [18]. The GI50 in experiment [19] was > 100 µM (inactive).
Take `Cc1ccc(C(=O)/C=C2\Nc3cccnc3NC2=O)cc1`: the GI50 in [1], in [2], in experiment [3], in experiment [4], in experiment [5] and in experiment [6] was > 100 µM (inactive) in each case. In addition, the GI50 was > 100 µM (inactive) in [7]; > 100 µM (inactive) in experiment [8]; > 100 µM (inactive) in experiment [9]; > 100 µM (inactive) in experiment [10]; 16.6 µM (inactive) in experiment [11]; > 100 µM (inactive) in experiment [12]. Further, the GI50 in [13] was 33.6 µM (inactive); in experiment [14] it was > 100 µM (inactive); in experiment [15] it was > 100 µM (inactive); in [16], 40.2 µM (inactive); in experiment [17], > 100 µM (inactive); in experiment [18] it was > 100 µM. Moreover, the GI50 in [19] was > 100 µM (inactive).
On to `O=C(Oc1cc(=O)c(OC(=O)c2ccccc2)co1)c1ccccc1`, for which the GI50 was > 100 µM (inactive) in experiment [1]; 55.6 µM (inactive) in experiment [2]; 45.8 µM (inactive) in [3]; > 100 µM (inactive) in experiment [4]; > 100 µM (inactive) in experiment [6]; > 100 µM (inactive) in experiment [7]. The GI50 in [8] was 84.5 µM (inactive); in experiment [9], > 100 µM (inactive); in experiment [10], > 100 µM (inactive); in experiment [11], 26.9 µM (inactive); in experiment [12], > 100 µM (inactive); in experiment [13], 80 µM (inactive). The GI50 in experiment [14] is > 100 µM (inactive); in [15], 31.7 µM (inactive); in experiment [16], 49.4 µM (inactive); in experiment [17] it was 36.9 µM (inactive); in experiment [18] it was 42.6 µM; in experiment [19] it was 65 µM (inactive). Besides, the GI50 in experiment [20] is > 100 µM (inactive).
As for `NC(=O)N/N=C1\C[C@H]2CCCC[C@H]2C1`, the GI50 in experiment [1], in experiment [2], in experiment [3], in experiment [4], in experiment [6] and in [7] was > 100 µM (inactive) each time. Further, the GI50 in experiment [8], in [9], in [10], in [11], in [12] and in experiment [13] was > 100 µM (inactive) each time. The GI50 was > 100 µM (inactive) in experiment [14]; > 100 µM (inactive) in experiment [15]; > 100 µM (inactive) in experiment [16]; > 100 µM (inactive) in [17]; > 100 µM in experiment [18]; > 100 µM (inactive) in [19]. In addition, the GI50 in experiment [20] is > 100 µM (inactive).
